{"source": "patent US20240091183A1", "about": "(Syros Pharmaceuticals, Inc., priority 2021, published 2024)", "test": "population PK model and simulations of flat versus BSA-based dosing of tamibarotene", "set-up": "species or system human", "conditions": "population PK analysis of prior study, 6 mg/m2/day in 2 divided doses", "method": "The dose and regimen used in a prior study (6 mg/m^2/day in 2 divided doses) were based on the dose and regimen approved in Japan for the treatment of APL. […] Based on this analysis, the fixed dosing regimens described herein, including the 6 mg BID flat dosing regimen, are expected to provide similar PK exposures compared to the 6 mg/m^2/day (in 2 divided doses) regimen used in the prior study.\nA population PK model was developed using patient characteristics, and we assessed the impact of weight on drug clearance. Simulations were conducted to assess the performance of “flat” versus BSA-based dosing. Simulated AUC (area-under-the-curve) from the model was used to establish relationship of exposure with efficacy and safety; we analyzed exposure and achievement of CR/CRi and exposure with adverse events equal to or greater than those of grade 3.", "data": [{"substance": "Tamibarotene", "values": [{"measurement": "association of body size with clearance", "value": "not significantly associated"}]}]}
